Data from patent publication US9499519B2, “Fused pyrimidine compounds and use thereof” (Medivation Technologies, Inc., priority 2012, dated 2016).
Like-named read-outs stand apart in the source and are kept apart here.

Tests used:
[1] = system: Akt phosphorylation induced by IGF-1R; test: Western blot analysis of Akt phosphorylation induced by IGF-1 in HT-29 cells; assay type: cell-based, Human; details: for Levels of phosphorylated AKT in treated cells (pAKT/actin): HT-29 cells, IGF-1; for p-AKT relative to levels with 0.1 nM compound: Table B2 lower part; for Normalized phosphorylated AKT (relative to actin) levels relative to 0.1 nM compound treatment: Table B2 upper part; for pAKT relative to 0.1 nM compound: derivatives of Cpd. No. 8b
Method in brief: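 HT-29 cells grown 24 h in DME/F12 with 10% FBS, serum-starved 24 h, then exposed 2 h to compound at 0.1, 1, 10 or 100; controls received DMSO or 10 ng/mL IGF-1. Lysate soluble fractions quantified by BCA before western blotting for phospho-Akt.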

IGF-1R = molecular target: T1, IGF-1R (Homo sapiens, UniProt P08069); test: In vitro IGF-1R enzymatic assay (ADP-Glo kinase assay); assay type: biochemical; details: activated IGF-1R, 30 nM; for % Inh @ 30 nM (N1) / % Inh @ 30 nM (N2): 0.03 µM
T1 construct: purchased Millipore 14-802
T1 sequence (P08069 31-1367): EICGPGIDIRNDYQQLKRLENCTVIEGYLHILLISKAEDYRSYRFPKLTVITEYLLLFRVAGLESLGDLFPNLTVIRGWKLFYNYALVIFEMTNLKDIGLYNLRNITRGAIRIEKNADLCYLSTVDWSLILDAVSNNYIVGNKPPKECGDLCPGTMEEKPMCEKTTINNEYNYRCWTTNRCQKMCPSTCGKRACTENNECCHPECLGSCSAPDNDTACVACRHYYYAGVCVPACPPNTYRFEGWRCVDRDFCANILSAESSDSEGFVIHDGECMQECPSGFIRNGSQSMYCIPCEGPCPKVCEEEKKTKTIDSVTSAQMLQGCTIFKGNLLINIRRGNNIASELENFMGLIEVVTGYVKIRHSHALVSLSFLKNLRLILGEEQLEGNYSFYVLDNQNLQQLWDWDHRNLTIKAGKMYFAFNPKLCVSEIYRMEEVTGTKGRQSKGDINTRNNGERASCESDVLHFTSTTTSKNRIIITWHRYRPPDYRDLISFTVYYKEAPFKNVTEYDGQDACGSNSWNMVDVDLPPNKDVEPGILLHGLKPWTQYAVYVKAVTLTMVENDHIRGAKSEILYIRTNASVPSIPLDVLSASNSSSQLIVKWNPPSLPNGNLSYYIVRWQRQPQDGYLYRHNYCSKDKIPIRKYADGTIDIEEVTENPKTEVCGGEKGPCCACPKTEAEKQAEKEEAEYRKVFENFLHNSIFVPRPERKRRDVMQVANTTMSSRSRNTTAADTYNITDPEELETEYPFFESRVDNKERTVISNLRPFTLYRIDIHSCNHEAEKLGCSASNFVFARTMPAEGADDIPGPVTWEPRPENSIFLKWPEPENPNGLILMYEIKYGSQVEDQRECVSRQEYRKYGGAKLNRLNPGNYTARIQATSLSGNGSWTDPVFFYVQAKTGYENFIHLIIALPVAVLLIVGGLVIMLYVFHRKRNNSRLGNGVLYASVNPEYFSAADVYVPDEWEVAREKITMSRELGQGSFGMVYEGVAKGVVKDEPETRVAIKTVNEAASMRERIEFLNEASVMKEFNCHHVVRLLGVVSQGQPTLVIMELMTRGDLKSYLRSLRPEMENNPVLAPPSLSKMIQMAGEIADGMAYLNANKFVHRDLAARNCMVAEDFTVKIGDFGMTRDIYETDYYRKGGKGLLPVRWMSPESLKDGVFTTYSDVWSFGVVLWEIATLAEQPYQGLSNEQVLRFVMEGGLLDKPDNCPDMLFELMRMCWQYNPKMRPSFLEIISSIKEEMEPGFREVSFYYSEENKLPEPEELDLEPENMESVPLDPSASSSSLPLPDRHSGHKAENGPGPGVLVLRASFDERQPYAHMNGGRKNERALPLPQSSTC
Experimental: (§1) IC50 values of the compounds of the invention against IGF-1R and IR were measured in vitro using an ADP-Glo kinase assay Kit (Promega). […] Kinase reactions in both assays were conducted at 30° C. for 20 min with increasing concentrations of compounds of the invention.
Additional compounds of the invention were screened against activated IGF-1R.

IR = molecular target: T2, IR (Homo sapiens, UniProt P06213); test: In vitro IR enzymatic assay (ADP-Glo kinase assay); assay type: biochemical; details: activated IR, 30 nM; for % Inh @ 30 nM (N1) / % Inh @ 30 nM (N2): 0.03 µM
T2 construct: purchased Millipore 14-803
T2 sequence (P06213 28-1382): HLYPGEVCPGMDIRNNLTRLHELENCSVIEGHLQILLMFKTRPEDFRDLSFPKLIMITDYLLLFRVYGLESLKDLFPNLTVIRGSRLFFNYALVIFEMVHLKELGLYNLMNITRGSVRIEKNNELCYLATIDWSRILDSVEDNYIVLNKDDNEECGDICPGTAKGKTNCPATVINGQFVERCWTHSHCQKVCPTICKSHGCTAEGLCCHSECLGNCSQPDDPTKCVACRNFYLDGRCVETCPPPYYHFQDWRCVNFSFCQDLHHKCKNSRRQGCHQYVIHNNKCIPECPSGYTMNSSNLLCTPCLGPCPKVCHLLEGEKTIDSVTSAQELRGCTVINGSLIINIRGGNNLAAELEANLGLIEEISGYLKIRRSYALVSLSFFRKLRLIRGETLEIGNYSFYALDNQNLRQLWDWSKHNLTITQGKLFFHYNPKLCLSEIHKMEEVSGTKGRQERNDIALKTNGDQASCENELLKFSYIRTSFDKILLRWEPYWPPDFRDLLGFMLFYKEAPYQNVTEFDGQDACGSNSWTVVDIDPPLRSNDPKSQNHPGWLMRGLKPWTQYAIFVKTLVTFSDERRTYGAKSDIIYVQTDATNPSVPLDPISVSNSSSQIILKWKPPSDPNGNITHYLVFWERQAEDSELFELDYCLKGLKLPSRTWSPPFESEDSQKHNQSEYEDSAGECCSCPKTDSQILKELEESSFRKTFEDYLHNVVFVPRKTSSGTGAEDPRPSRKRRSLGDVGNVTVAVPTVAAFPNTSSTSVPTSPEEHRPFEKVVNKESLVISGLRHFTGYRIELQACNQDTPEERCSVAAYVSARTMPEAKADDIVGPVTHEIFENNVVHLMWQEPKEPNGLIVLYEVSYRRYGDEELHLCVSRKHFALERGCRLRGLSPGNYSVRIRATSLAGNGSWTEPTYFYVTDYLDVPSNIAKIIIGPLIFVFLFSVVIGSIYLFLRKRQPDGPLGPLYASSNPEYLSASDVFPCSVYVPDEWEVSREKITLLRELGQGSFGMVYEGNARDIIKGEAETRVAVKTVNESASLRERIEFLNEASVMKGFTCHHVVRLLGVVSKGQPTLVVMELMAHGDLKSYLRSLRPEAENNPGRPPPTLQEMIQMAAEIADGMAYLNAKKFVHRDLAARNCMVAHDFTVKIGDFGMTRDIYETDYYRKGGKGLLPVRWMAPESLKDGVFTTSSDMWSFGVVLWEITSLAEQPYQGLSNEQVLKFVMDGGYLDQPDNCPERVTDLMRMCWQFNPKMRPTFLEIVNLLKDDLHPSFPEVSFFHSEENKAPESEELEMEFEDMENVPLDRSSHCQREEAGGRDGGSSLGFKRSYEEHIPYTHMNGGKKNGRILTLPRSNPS
Experimental: as §1
Additional compounds of the invention were screened against activated IR.

[2] = N1, read-out: % Inh @ 30 nM (N1)
[3] = N2, read-out: % Inh @ 30 nM (N2)
[4] = average, read-out: % Inh @ 30 nM Avg

inhibition at 0.03 µM (IGF-1R; [2]) [%] | inhibition at 0.03 µM (IGF-1R; [3]) [%] | inhibition at 0.03 µM (IGF-1R; [4]) [%] | inhibition at 0.03 µM (IR; [2]) [%] | % Inh @ 30 nM (N2) (IGF-1R; N2) [%] | % Inh @ 30 nM (N1) (IR; N1) [%] | % Inh @ 30 nM (N2) (IR; N2) [%] | % Inh @ 30 nM Avg (IR; average) [%] | Structure (SMILES) | Levels of phosphorylated AKT in treated cells (pAKT/actin) ([1]; 0.1 nM compound) | p-AKT relative to levels with 0.1 nM compound ([1]; 0.1 nM) | Normalized phosphorylated AKT (relative to actin) levels relative to 0.1 nM compound treatment ([1]; 0.1 nM) | Levels of phosphorylated AKT in treated cells (pAKT/actin) ([1]; 1 nM compound) | p-AKT relative to levels with 0.1 nM compound ([1]; 1 nM) | Normalized phosphorylated AKT (relative to actin) levels relative to 0.1 nM compound treatment ([1]; 1 nM) | Levels of phosphorylated AKT in treated cells (pAKT/actin) ([1]; 10 nM compound) | p-AKT relative to levels with 0.1 nM compound ([1]; 10 nM) | Normalized phosphorylated AKT (relative to actin) levels relative to 0.1 nM compound treatment ([1]; 10 nM) | Levels of phosphorylated AKT in treated cells (pAKT/actin) ([1]; 100 nM compound) | p-AKT relative to levels with 0.1 nM compound ([1]; 100 nM) | Normalized phosphorylated AKT (relative to actin) levels relative to 0.1 nM compound treatment ([1]; 100 nM) | other results
– | – | – | – | 28 | 28 | 31 | 30 | O=C(Nc1ccc(F)nc1)C1CCCN1c1nc2c(c(Nc3cc(C4CCCC4)[nH]n3)n1)CCCC2 (single isomer, unassigned) [Compound 15b, 1-(4-(5-cyclopentyl-1H-pyrazol-3-ylamino)-5,6,7,8-tetrahydroquinazolin-2-yl)-N-(6-fluoropyridin-3-yl)pyrrolidine-2-carboxamide] | 0.52 | 1.0 | 1.0 | 0.58 | 1.1 | 1.1 | 0.43 | 0.8 | 0.8 | 0.13 | 0.3 | 0.3 | % Inh @ 30 nM (N1) (IGF-1R; N1): 32%; % Inh @ 30 nM Avg (IGF-1R; average): 30%
– | – | – | – | 15 | 1 | −7 | −3 | CC(C)c1cc(Nc2nc(N3CCCCC3C(=O)Nc3ccc(F)nc3)nc3c2CCC3)n[nH]1 (single isomer, unassigned) [Compound 16a, N-(6-fluoropyridin-3-yl)-1-(4-(5-isopropyl-1H-pyrazol-3-ylamino)-6,7-dihydro-5H-cyclopenta[d]pyrimidin-2-yl)piperidine-2-carboxamide] | 0.82 | 1.0 | 1.0 | 0.62 | 0.8 | 0.8 | 0.61 | 0.7 | 0.7 | 0.30 | 0.4 | 0.4 | –
– | – | – | – | 40 | 26 | 23 | 25 | CC(C)c1cc(Nc2nc(N3CCCCC3C(=O)Nc3ccc(F)nc3)nc3c2CCC3)n[nH]1 (single isomer, unassigned) [Compound 16b, N-(6-fluoropyridin-3-yl)-1-(4-(5-isopropyl-1H-pyrazol-3-ylamino)-6,7-dihydro-5H-cyclopenta[d]pyrimidin-2-yl)piperidine-2-carboxamide] | 0.53 | 1.0 | 1.0 | 0.51 | 1.0 | 1.0 | 0.15 | 0.3 | 0.3 | 0.01 | 0.0 | 0.0 | % Inh @ 30 nM (N1) (IGF-1R; N1): 40%; % Inh @ 30 nM Avg (IGF-1R; average): 40%

More lines, now with the values behind:

Structure (SMILES) | inhibition at 0.03 µM (IGF-1R; [2]) [%] | inhibition at 0.03 µM (IGF-1R; [3]) [%] | inhibition at 0.03 µM (IGF-1R; [4]) [%] | inhibition at 0.03 µM (IR; [2]) [%] | % Inh @ 30 nM (N2) (IGF-1R; N2) [%] | % Inh @ 30 nM (N1) (IR; N1) [%] | % Inh @ 30 nM (N2) (IR; N2) [%] | % Inh @ 30 nM Avg (IR; average) [%] | Levels of phosphorylated AKT in treated cells (pAKT/actin) ([1]; 0.1 nM compound) | p-AKT relative to levels with 0.1 nM compound ([1]; 0.1 nM) | Normalized phosphorylated AKT (relative to actin) levels relative to 0.1 nM compound treatment ([1]; 0.1 nM) | Levels of phosphorylated AKT in treated cells (pAKT/actin) ([1]; 1 nM compound) | p-AKT relative to levels with 0.1 nM compound ([1]; 1 nM) | Normalized phosphorylated AKT (relative to actin) levels relative to 0.1 nM compound treatment ([1]; 1 nM) | Levels of phosphorylated AKT in treated cells (pAKT/actin) ([1]; 10 nM compound) | p-AKT relative to levels with 0.1 nM compound ([1]; 10 nM) | Normalized phosphorylated AKT (relative to actin) levels relative to 0.1 nM compound treatment ([1]; 10 nM) | Levels of phosphorylated AKT in treated cells (pAKT/actin) ([1]; 100 nM compound) | p-AKT relative to levels with 0.1 nM compound ([1]; 100 nM) | Normalized phosphorylated AKT (relative to actin) levels relative to 0.1 nM compound treatment ([1]; 100 nM) | other results
O=C(Nc1cnccn1)C1CCCN1c1nc2c(c(Nc3cc(C4CC4)[nH]n3)n1)CCC2 (single isomer, unassigned) [Compound 6a, 1-(4-(3-cyclopropyl-1H-pyrazol-5-ylamino)-6,7-dihydro-5H-cyclopenta[d]pyrimidin-2-yl)-N-(pyrazin-2-yl)pyrrolidine-2-carboxamide] | 22 | 33 | 28 | -13 | – | – | – | – | 1.85 | 1.0 | 1.0 | 1.74 | 0.9 | 0.9 | 1.40 | 0.8 | 0.8 | 1.17 | 0.6 | 0.6 | inhibition at 0.03 µM (IR; [3]): 9%; inhibition at 0.03 µM (IR; [4]): -2%
O=C(Nc1ccc(F)nc1)C1C(O)CCN1c1nc2c(c(Nc3cc(C4CC4)[nH]n3)n1)CCC2 (single isomer, unassigned) [Compound 11b, 1-(4-(5-cyclopropyl-1H-pyrazol-3-ylamino)-6,7-dihydro-5H-cyclopenta[d]pyrimidin-2-yl)-N-(6-fluoropyridin-3-yl)-3-hydroxypyrrolidine-2-carboxamide] | – | – | – | – | 11 | −2 | 9 | 3 | 1.55 | 1.0 | 1.0 | 1.76 | 1.1 | 1.1 | 1.43 | 0.9 | 0.9 | 0.33 | 0.2 | 0.2 | % Inh @ 30 nM (N1) (IGF-1R; N1): 22%; % Inh @ 30 nM Avg (IGF-1R; average): 17%
CC(C)c1cc(Nc2nc(N3CCCC3C(=O)Nc3ccc(F)nc3)nc3c2CCCC3)n[nH]1 (single isomer, unassigned) [Compound 13a, N-(6-fluoropyridin-3-yl)-1-(4-(5-isopropyl-1H-pyrazol-3-ylamino)-5,6,7,8-tetrahydroquinazolin-2-yl)pyrrolidine-2-carboxamide] | 10 | 34 | 22 | 4 | – | – | – | – | 0.51 | 1.0 | 1.0 | 0.54 | 1.1 | 1.1 | 0.45 | 0.9 | 0.9 | 0.80 | 1.6 | 1.6 | inhibition at 0.03 µM (IR; [3]): -1%; inhibition at 0.03 µM (IR; [4]): 2%
CC(C)c1cc(Nc2nc(N3CCCC3C(=O)Nc3ccc(F)nc3)nc3c2CCCC3)n[nH]1 (single isomer, unassigned) [Compound 13b, N-(6-fluoropyridin-3-yl)-1-(4-(5-isopropyl-1H-pyrazol-3-ylamino)-5,6,7,8-tetrahydroquinazolin-2-yl)pyrrolidine-2-carboxamide] | 82 | 80 | 81 | 84 | – | – | – | – | 0.22 | 1.0 | 1.0 | 0.09 | 0.4 | 0.4 | 0.00 | 0.0 | 0.0 | 0.00 | 0.0 | 0.0 | pAKT relative to 0.1 nM compound ([1]; 0.1 nM): 1.00; pAKT relative to 0.1 nM compound ([1]; 1 nM): 0.49; pAKT relative to 0.1 nM compound ([1]; 10 nM): 0.04; pAKT relative to 0.1 nM compound ([1]; 100 nM): 0.02; inhibition at 0.03 µM (IR; [3]): 80%; inhibition at 0.03 µM (IR; [4]): 82%
